Tests used:
[1] = tested on: ovarian cancer cell line, CAOV-3; test: MiCK-type apoptosis drug screening assay, CAOV-3; type: cell-based; conditions: CAOV-3 cells; as Example 1 but with higher drug concentrations
Source text: (§1) KU=(VmaxDrug Treated−VmaxControl)×60×y/(ODcell−ODblank).
(§2) Vmax is the maximum kinetic rate, which is the slope of the steep increase in the OD v. time plot when cells are undergoing apoptosis. Vmax in this equation is given in milli-optical density units/hour (mOD/h). ODcell is the initial OD of the control containing cells and ODblank is the initial OD of a blank well containing only medium or medium and drug (the drug may be omitted for some drugs, but for colored drugs in particular it may be included in the blank). y is a coefficient dependent on the cell type being assayed and may be determined experimentally through observation of the cell lines. Further information regarding this equation may be found in Kravtsov et al.
Cancer cells were obtained from exponentially growing cultures in RPMI 1640 medium without phenol red supplemented with 10% heat-inactivated fetal bovine serum, 100 U/ml penicillin and 100 μg/mL streptomycin (complete medium) in humidified air with 5% CO2 at 37° C. Cells were harvested, washed with pre-warmed medium and resuspended in complete medium. Appropriate cell counts and viability were tested.
Cells from each cell line in complete medium were placed in wells of a 96-well plate at a concentration of 2 to 5×10^5 cells/ml. Various dilutions of the drug candidate, Idarubicin, were added to the wells in 5 μL aliquots. Final concentrations for the drug candidate were 0.01, 0.1, 0.5, 1, 5, 10 and 20 μM. The plates were incubated at 37° C. for 30 minutes in a humidified 5% CO2 atmosphere. After this adjustment period, 30 μl of sterile mineral oil was layered on top of each well. The microtiter plate was placed in an incubated spectrophotometer chamber (37° C.) and OD at 600 nm was measured every 5 minutes for a period of 48 hours. The reader was calibrated to zero absorbance using well containing only complete medium and no cells. All tests were performed in triplicate.
Data acquisition and computation was performed using appropriate software. OD readings were plotted against time to provide a kinetic representation of cell responses to the drugs and drug candidate. Kinetic units were calculated for each test well. A kinetic unit below three was considered a negative response and above 3 was considered a positive response. A kinetic unit between 1.5 and 3 was considered a marginal response.
A variety of anti-cancer drugs were tested against a single ovarian cancer cell line, CAOV-3, to determine their suitability for use against ovarian cancer. Tests were performed in a manner similar to those in Example 1, but with higher drug concentrations.

[2] = tested on: RAMOS, a B cell line derived from Burkitt's lymphoma; test: MiCK-type apoptosis drug screening assay (OD 600 nm, kinetic units), RAMOS; type: cell-based, human; conditions: 0.01-20 μM
Source text: as §1
as §2, with “al. […]” for “al.”
(§3) Cells from each cell line in complete medium were placed in wells of a 96-well plate at a concentration of 2 to 5×10^5 cells/ml. […] The microtiter plate was placed in an incubated spectrophotometer chamber (37° C.) and OD at 600 nm was measured every 5 minutes for a period of 48 hours. The reader was calibrated to zero absorbance using well containing only complete medium and no cells. […]
(§4) Data acquisition and computation was performed using appropriate software. OD readings were plotted against time to provide a kinetic representation of cell responses to the drugs and drug candidate. Kinetic units were calculated for each test well. […]

[3] = tested on: MOLT-3, an acute T-cell lymphoblastic leukemia; test: MiCK-type apoptosis drug screening assay (OD 600 nm, kinetic units), MOLT-3; type: cell-based, human; conditions: MOLT-3 cells; 0.01-20 μM
Source text: as §1
as §2, with “al. […]” for “al.”
as §3, §4

Structure (SMILES) | response / suitability (in words) [1] | response versus concentration (in words) [2] | kinetic unit readings versus concentration (in words) [3]
COc1cccc2c1C(=O)c1c(O)c3c(c(O)c1C2=O)C[C@@](O)(C(C)=O)C[C@@H]3O[C@H]1C[C@H](N)[C@H](O)[C@H](C)O1 [Daunorubicin] | positive response at reasonable concentrations | – | –
CC(=O)[C@]1(O)Cc2c(O)c3c(c(O)c2[C@@H](O[C@H]2C[C@H](N)[C@H](O)[C@H](C)O2)C1)C(=O)c1ccccc1C3=O [Idarubicin, 4-demethoxydaunorubicin] | positive response at reasonable concentrations | positive response was seen in the Ramos cell line only at high concentrations | higher kinetic unit readings at lower concentrations
CCc1c2c(nc3ccc(OC(=O)N4CCC(N5CCCCC5)CC4)cc13)-c1cc3c(c(=O)n1C2)COC(=O)[C@]3(O)CC [Irinotecan] | need to use high concentrations of the drug to achieve a positive response | – | –
CO[C@@]12[C@H](COC(N)=O)C3=C(C(=O)C(C)=C(N)C3=O)N1C[C@@H]1N[C@@H]12 [Mitomycin] | positive response at reasonable concentrations | – | –
O=C1c2c(O)ccc(O)c2C(=O)c2c(NCCNCCO)ccc(NCCNCCO)c21 [Mitoxantrone] | positive response at reasonable concentrations | – | –
O=C1[O][Pt]2([NH][C@@H]3CCCC[C@H]3[NH]2)[O]C1=O [Oxaliplatin] | not suitable drugs for treating ovarian cancer | – | –
CCC1=C[C@@H]2CN(C1)Cc1c([nH]c3ccccc13)[C@@](C(=O)OC)(c1cc3c(cc1OC)N(C)[C@H]1[C@@](O)(C(=O)OC)[C@H](OC(C)=O)[C@]4(CC)C=CCN5CC[C@]31[C@@H]54)C2 [Vinorelbine] | not suitable drugs for treating ovarian cancer | – | –
